# Source: ChEMBL document CHEMBL3297727, “Endiandric acid analogues from Beilschmiedia ferruginea as dual inhibitors of Bcl-xL/Bak and Mcl-1/Bid interactions” (J Nat Prod, 2014)
# Active and inactive are the calls of the source. The calls are words filed in the database; no cut-off is given here.
# How the values were obtained:
# [1] = target: T1, Bcl-2-like protein 1 (Homo sapiens, UniProt Q07817); assay: Displacement of fluorescein-labeled BAK from His-tagged BCL-XL (unknown origin) at 100 uM after 1 hr by fluorescence polarization assay relative to control
# [2] = Drug degradation assessed as conversion to ferrugineic acid H and ferrugineic acid I at 4 degC incubated under dark condition for 3 to 6 months; format: physicochemical
# [3] = tested on: K562; assay: Cytotoxicity against human K562 cells up to 50 uM after 72 hrs by resazurin-based fluorimetric assay; format: functional, cell-based
# [4] = Drug degradation assessed as conversion to ferrugineic acid F and ferrugineic acid G under diffuse daylight condition at 25 degC for 1 month; format: physicochemical; conditions: 730.5 h
# [5] = Drug degradation assessed as conversion to ferrugineic acid H and ferrugineic acid I under diffuse daylight condition at 25 degC for 1 month; format: physicochemical; conditions: 730.5 h
# [6] = target: T2, Induced myeloid leukemia cell differentiation protein Mcl-1 (Homo sapiens, UniProt Q07820); assay: Displacement of fluorescein-labeled BID from His-tagged MCL-1 (unknown origin) at 100 uM after 1 hr by fluorescence polarization assay relative to control
# [7] = Drug degradation assessed as conversion to ferrugineic acid F and ferrugineic acid G at 4 degC incubated under dark condition for 3 to 6 months; format: physicochemical
# [8] = Drug degradation in DMSO assessed as autoxidation at 4 degC incubated under dark condition for 6 months; format: physicochemical; conditions: 4383 h
# [9] = target: T1, Bcl-2-like protein 1; assay: Displacement of fluorescein-labeled BAK from His-tagged BCL-XL (unknown origin) after 1 hr by fluorescence polarization assay
# [10] = tested on: HCT-116; assay: Cytotoxicity against human HCT116 cells up to 50 uM after 72 hrs by resazurin-based fluorimetric assay; format: functional, cell-based
# [11] = target: T2, Induced myeloid leukemia cell differentiation protein Mcl-1; assay: Displacement of fluorescein-labeled BID from His-tagged MCL-1 (unknown origin) after 1 hr by fluorescence polarization assay
# [12] = Cytotoxicity against human HCT116 cells after 72 hrs by resazurin-based fluorimetric assay; format: functional, cell-based; conditions: HCT-116, 72 h
# [13] = tested on: K562; assay: Cytotoxicity against human K562 cells after 72 hrs by resazurin-based fluorimetric assay; format: functional, cell-based; conditions: K562, 72 h
# T1 sequence (Q07817 whole entry): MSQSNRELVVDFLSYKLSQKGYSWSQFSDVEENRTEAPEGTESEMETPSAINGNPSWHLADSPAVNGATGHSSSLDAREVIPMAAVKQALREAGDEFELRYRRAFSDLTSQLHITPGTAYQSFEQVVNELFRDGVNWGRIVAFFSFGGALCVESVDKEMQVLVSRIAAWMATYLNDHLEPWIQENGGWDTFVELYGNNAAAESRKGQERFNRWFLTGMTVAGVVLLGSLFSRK
# T2 sequence (Q07820 whole entry): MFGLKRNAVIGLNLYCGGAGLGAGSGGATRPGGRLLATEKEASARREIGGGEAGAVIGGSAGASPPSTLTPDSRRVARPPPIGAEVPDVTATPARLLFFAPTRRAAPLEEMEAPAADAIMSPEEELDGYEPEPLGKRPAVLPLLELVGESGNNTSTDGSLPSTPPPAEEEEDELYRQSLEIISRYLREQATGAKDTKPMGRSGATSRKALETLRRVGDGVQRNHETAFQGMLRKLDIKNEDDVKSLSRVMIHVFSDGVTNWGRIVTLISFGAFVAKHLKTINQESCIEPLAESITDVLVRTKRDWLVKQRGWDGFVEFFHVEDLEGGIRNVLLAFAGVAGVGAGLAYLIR
compound,measurement,setting,value
O=C(O)[C@@H]1C=C[C@@H]2C[C@H]3[C@H](CCCc4ccc(O)cc4)[C@H]4C=C[C@@H]1[C@@H]2[C@H]43 (relative stereo),inhibition,[1],22%
same,Stability,[2],Unstable
same,Activity,[3],inactive
same,Stability,[4],Unstable
same,Stability,[5],Unstable
same,inhibition,[6],0%
same,Stability,[7],Unstable
same,Stability,[8],Stable
same,Ki,[9],> 100 µM
same,Activity,[10],inactive
O=C(O)[C@@H]1C=C[C@@H]2C[C@H]3[C@H](CCCCCc4ccc(O)cc4)[C@H]4C=C[C@@H]1[C@@H]2[C@H]43 (relative stereo),inhibition,[1],60%
same,Stability,[2],Unstable
same,Activity,[3],inactive
same,Stability,[4],Unstable
same,Ki,[11],14 µM
same,Stability,[5],Unstable
same,inhibition,[6],85%
same,Stability,[7],Unstable
same,Stability,[8],Stable
same,Ki,[9],19.2 µM
same,Activity,[10],inactive
O=C(O)[C@@H]1C=C[C@@H]2C[C@H]3[C@H](CCCCCCCc4ccc(O)cc4)[C@H]4C=C[C@@H]1[C@@H]2[C@H]43 (relative stereo),inhibition,[1],93%
same,Activity,[3],inactive
same,Ki,[11],13 µM
same,inhibition,[6],82%
same,Stability,[8],Stable
same,Ki,[9],12.6 µM
same,Activity,[10],inactive
O=C(O)[C@@H]1C=C[C@@H]2C[C@H]3[C@H](CCCc4ccc(O)c(O)c4)[C@H]4C=C[C@@H]1[C@@H]2[C@H]43 (relative stereo),inhibition,[1],39%
same,Activity,[3],inactive
same,Ki,[11],5.2 µM
same,inhibition,[6],82%
same,Stability,[8],Stable
same,Ki,[9],> 100 µM
same,Activity,[10],inactive
O=C(O)[C@@H]1C=C[C@@H]2C[C@H]3[C@H](CC/C=C/Cc4ccc(O)cc4)[C@H]4C=C[C@@H]1[C@@H]2[C@H]43 (relative stereo),inhibition,[1],20%
same,Activity,[3],inactive
same,inhibition,[6],14%
same,Stability,[8],Stable
same,Activity,[10],inactive
O=C(O)/C=C/[C@H]1[C@H]2C=C[C@H]3[C@@H]1C[C@H]1[C@H](CCCc4ccc(O)cc4)[C@@H]2[C@@H]31 (relative stereo),inhibition,[1],22%
same,Activity,[3],inactive
same,inhibition,[6],0%
same,Ki,[9],> 100 µM
same,Activity,[10],inactive
O=C(O)C1=CC(=O)[C@@H]2C[C@H]3[C@H](CCCc4ccc(O)cc4)[C@H]4C=C[C@@H]1[C@@H]2[C@H]43 (relative stereo),Activity,[3],inactive
same,Activity,[10],inactive
O=C(O)C1=C[C@@H](O)[C@@H]2C[C@H]3[C@H](CCCc4ccc(O)cc4)[C@H]4C=C[C@@H]1[C@@H]2[C@H]43 (relative stereo),inhibition,[1],7%
same,Activity,[3],inactive
same,inhibition,[6],0%
same,Activity,[10],inactive
O=C(O)C1=C[C@H](O)[C@@H]2C[C@H]3[C@H](CCCCCc4ccc(O)cc4)[C@H]4C=C[C@@H]1[C@@H]2[C@H]43 (relative stereo),inhibition,[6],3%
CCC1=C[C@@H]2CN(C1)Cc1c([nH]c3ccccc13)[C@@](C(=O)OC)(c1cc3c(cc1OC)N(C)[C@H]1[C@@](O)(C(=O)OC)[C@H](OC(C)=O)[C@]4(CC)C=CCN5CC[C@]31[C@@H]54)C2 [VINORELBINE],IC50,[12],0.015 µM
same,IC50,[13],0.006 µM
